Assays:
3T3-L1 adipocytes = experiment: Thermogenic gene expression in 3T3-L1 adipocytes (TaqMan / RT-PCR); format: cell-based, mouse
Experimental: FIGS. 9A to 9D show DRG neurons (500 neurons per well) cultured in DRG culture medium only, or DRG culture medium with NT-3 (1 ng/mL), with NGF (10 ng/mL), with WT secretome (1/1, v/v), or with Aldh1a1^−/− secretome (1/1, v/v) for 24 hours. WT and Aldh1a1^−/− adipocytes differentiated for 5 days. Secretome is the media collected from these cells for 24 h. Neurite outgrowth parameters were assayed using the Thermo Scientific™ ArrayScan™ XTI Live High Content microscope and analyzed with the Neuronal Profiling Algorithm (ThermoFisher). Nine independent experiments were performed using DRG from three mice. Each DRG batch was analyzed in triplicate. Data are shown as mean±SD obtained with one DRG batch. Asterisks indicate P<0.05 between different groups; Mann-Whitney U test. FIG. 9A: Representative images show ~25% of area used for the automatic quantification of neuronal parameters in FIG. 3 per one condition. […] FIG. 9B: Secreted EFNA5 levels in the medium from 3T3-L1 preadipocytes and adipocytes differentiated for 4d were analyzed by ELISA. FIG. 9C: Basal metabolic rate (heat) was measured in PBS- and EFNA5-injected mice from Table 1, Study 4 by an open circuit indirect calorimetry treadmill. […] Expression was measured by RT-PCR and normalized by 18S.
FIGS. 11A to 11I show adipokine Ereg is bilaterally associated with obesity and thermogenesis and activates PPARα. […] FIG. 11B: Ereg expression was measured in non-differentiated and differentiated (day 5) 3T3-L1 adipocytes (Mann-Whitney test) using a customized NanoString mouse panel. FIG. 11C: Ereg expression was measured in differentiated (day 5) 3T3-L1 and Aldh1a1^−/− adipocytes by Taqman and normalized to TATA box protein (TBP). FIG. 11D: Plasma EREG concentrations were measured in mice from Study 1 by western blot. […] FIG. 11E: Plasma EREG concentrations were measured and quantified in iAb of WT and ob/ob mice from Study 2 by western blot (n=5 per each group). […] FIG. 11F: EREG was measured in iAb, subcutaneous and brown fat by western blot. […] Expression level were measured by Taqman and normalized by TBP. […]

PPARα-LBD = PPARα-LBD luciferase reporter in transiently transfected HEK293 cells; format: cell-based, human; details: EREG, 12 hrs
Experimental: FIGS. 11A to 11I show adipokine Ereg is bilaterally associated with obesity and thermogenesis and activates PPARα. […] Microarray gene analysis was performed using Affymetrix microarray. FIG. 11B: Ereg expression was measured in non-differentiated and differentiated (day 5) 3T3-L1 adipocytes (Mann-Whitney test) using a customized NanoString mouse panel. FIG. 11C: Ereg expression was measured in differentiated (day 5) 3T3-L1 and Aldh1a1^−/− adipocytes by Taqman and normalized to TATA box protein (TBP). FIG. 11D: Plasma EREG concentrations were measured in mice from Study 1 by western blot. […] FIG. 11E: Plasma EREG concentrations were measured and quantified in iAb of WT and ob/ob mice from Study 2 by western blot (n=5 per each group). […] FIG. 11F: EREG was measured in iAb, subcutaneous and brown fat by western blot. Fat pads were dissected from WT mice on regular chow (Study 1). FIG. 11G: Ucp2 and Ucp1 expression was measured in differentiated 3T3-L1 adipocytes (day 5) stimulated with vehicle (PBS) or recombinant EREG (50 ng/mL) added in the differentiation medium I and II. Expression level were measured by Taqman and normalized by TBP. FIGS. 11H and 11I: HEK293 cells were transiently transfected with PPARα-LBD, UASTK-luciferase, and renilla. […] Data represents % PPARα-LBD activation. Asterisks indicate significant difference (p<0.05) compared to vehicle control, #, indicates statistical difference between PPARα-LBD activation by EREG alone and in the presence of inhibitors. Data represent mean±SD. The Mann-Whitney test was used throughout these studies for group comparison.
HEK293 cells ([…] cells, 24-well plates) were used for transient transfection experiments. Cells were transfected with human PPARα-LBD construct, yeast UASTK luciferase reporter (SwitchGear Genomics, Menlo Park, CA), using Fugene (Roche Applied Science, Indianapolis, IN). Transfections were carried out in OptiMeM (Invitrogen, Carlsbad, CA) medium for 12 hours as described previously. Luciferase was measured using Promega assay according to manufacturer's instructions

GLUT4 = experiment: GLUT4-GFP translocation in transfected NIH-3T3 cells (confocal microscopy); format: cell-based; details: insulin 10 μg/mL, nanoscaffold 10 μM
Text: FIGS. 30A to 30D show translocation of GLUT4 (the major glucose transporter of adipocytes). Non-differentiated NIH-3[…][…]-GFP plasmid ([…] #52872) on Petri-35 dishes with coverslip ([…], cat #[…]-1.5-14-C, USA). […] FIG. 30A: GLUT4 (white vesicles) in cells (arrow) treated with vehicle are mainly in the cytosol. […] All images were taken at 60× magnification.

[1] = test system: human brain endothelial cells (hBEC); experiment: FD-glucose uptake in human brain endothelial cells (hBEC); format: cell-based; details: hINS 1.7 μM, AAC2 0.1 μM, 50 min; FIG. 42B
Experimental: FD-glucose uptake in human brain endothelial cells (hBEC, n=8 per treatment) treated with vehicle (Veh; PBS, open bar) or hINS (1.7 μM), human leptin (hLep; 62.5 nM, hatched bar), or AAC2 (0.1 μM black bar) in the presence and absence of GLUT1 inhibitor (BAY-876; 10 nM in DMSO). Cells were pre-treated with or without BAY-876 for 40 min and then FD glucose and treatment reagents were added for additional 50 min of incubation. Data (%) was normalized to FD-glucose uptake in control (Veh) hBEC without inhibitor (100%).

Row | Substance | expression of thermogenic gene Pgc1a (3T3-L1 adipocytes; 10 ng/ml recombinant EREG, FIG. 22) | Ucp1 and Ucp2 expression (3T3-L1 adipocytes; recombinant EREG 50 ng/mL, day 5) | induction of PPARα (PPARα-LBD activation) (PPARα-LBD) | GLUT4 translocation (GLUT4) | glucose uptake in human blood-brain barrier endothelial cells [1]
1 | EREG: Epiregulin, member of the epidermal growth factor family; recombinant mouse or human protein | increases | induced | dose dependent induction |  | 
2 | insulin: insulin (bovine or human) |  |  |  | translocated from cytosol to membrane | not

Reference: patent publication US12697366B2, “Thermogenic compositions and methods” (Ohio State Innovation Foundation, priority 2016, dated 2026)
